In publication PMC11982498 (Redox Biology, 2025):

Legend:
[1] = tested on: BCL-2 promoter G-quadruplex; experiment: CD melting experiment, BCL-2 G-quadruplex; type: binding; details: Tris-HCl buffer pH 7.4; 20 equivalents (20 μM) compound
Protocol: CD-melting experiment was carried out following a published method without significant modification. BCL-2 promoter i-motif and G-quadruplex structures at a concentration of 5 μM were annealed in buffer at 95 °C for 10 min, and then cooled to room temperature. The annealed samples were incubated with B14 for 6 h, and then molar ellipticity at 287 nm for i-motif structure or 260 nm for G-quadruplex structure, where the CD value was the highest in our experiment, was measured over a temperature range of 20–90 °C at a heating rate of 0.5 °C/min. Tm values were determined and calculated through nonlinear regression curve fitting with software GraphPad Prism 9.0. (GraphPad Software Inc., California, USA).
Figure S6. CD melting experiments were performed to examine the effects of B14 and A22 on BCL-2 promoter i-motif and G-quadruplex. (A-H) CD melting experiments were performed for BCL-2 promoter i-motif or G-quadruplex in the absence or presence of B14 (2, 5, 20 equivalents) and A22 (20 equivalents). The oligonucleotide for BCL-2 i-motif was annealed in 1 X BPES buffer at pH 5.5, while the oligonucleotide for BCL-2 G-quadruplex was annealed in 20 mM Tris-HCl buffer with 20 mM NaCl at pH 7.4. The ΔTm values for the effects of B14 and A22 on BCL-2 promoter i-motif were determined to be 11.26 °C and 11.82 °C, respectively. […]

RB promoter i-motif = experiment: TO displacement assay, RB i-motif; type: binding
Protocol: DNA oligonucleotides were diluted to 1 μM with 1 × PBES buffer at pH 5.5, annealed at 95 °C for 10 min, cooled to room temperature, and stored at 4 °C for future use. TO dye (1 μM) was added to the DNA solution followed with incubation for 1 h. The spectra of 100 μL mixture with addition of different equivalent compounds at 25 °C were recorded based on fluorescence emission (λex = 480 nm).
TO displacement ratio (%) = (F0 − FC) / (F0 − FB) * 100.
F0 and FC were the fluorescence intensity of TO at 536 nm with DNA before and after adding compounds, respectively. FB was the fluorescence intensity of TO at 536 nm with buffer only.

[2] = tested on: BAX gene transcription in SH-SY5Y cells; experiment: Real-time RT-PCR in SH-SY5Y cells, BAX; type: cell-based, human
Protocol: (§1) SH-SY5Y cells were treated with or without B14, and total RNA was subsequently isolated and purified. Reverse transcription was performed using a cDNA synthesis kit. The relative transcription levels of the genes were evaluated through quantitative real-time PCR using the SYBR Green-based method, as described in the Supplementary Date. Details regarding the primer sequences and the raw data can be found in Table S7 and Table S8.
(§2) ^a -∆∆Ct = -[(Ct value of genes in treated sample - Ct value of genes in control) - (Ct value of β-actin in treated sample - Ct value of β-actin in control)]. ^b F: The relative expression fold.
Experiment 1: SH-SY5Y cells were treated with different concentration of B14. The Ct values of BAX, VEGF, CMYC and BCL-2 were obtained.
(§3) Total RNA was extracted from cells and mice liver tissue using RNAiso Plus (Takara, 9109, Japan). Following sample homogenization, chloroform was added, and the solution was allowed to have phase separation into an upper aqueous layer (containing RNA), an interphase, and a lower organic layer (containing DNA and proteins). RNA was precipitated from the aqueous phase using isopropanol, while DNA was precipitated from the aqueous-organic interphase using ethanol. Complementary DNA (cDNA) was synthesized using the One-Step RT-PCR Kit (Takara, Cat#639503, Japan).
(§4) Quantitative real-time polymerase chain reaction (qRT-PCR) was performed using the 2× RealStar SYBR Mixture (GenStar, Cat# A301-10, Guangzhou, China) on a LightCycler 480 II real-time PCR system (Roche, USA). Data were analyzed using the 2^−ΔΔCt method. Actin served as the internal control, and relative mRNA levels were normalized accordingly.

HRAS promoter i-motif = experiment: SPR binding to HRAS promoter i-motif; details: MES buffer pH 5.5
(G2C4)6 promoter i-motif = experiment: SPR binding to (G2C4)6 promoter i-motif; details: MES buffer pH 5.5
[3] = tested on: BAX gene transcription in SH-SY5Y cells; experiment: Real-time RT-PCR in 25 μM Aβ1-42 cell model, BAX; type: cell-based, human
Protocol: as §1, §2
Experiment 2: The Ct values of BCL-2 and Bax in 25 μM Aβ1-42 model with different concentration of B14.
as §3, §4

[4] = target: BCL-2 G-quadruplex (BCL-2 G4); experiment: MST binding to BCL-2 G-quadruplex; details: Tris-HCl buffer pH 7.4
Protocol: After incubation of DNA with compound for 60 min, the sample was loaded in MST-grade glass capillaries. The intensity of the LED power was set at 20 %, and the MST laser was set at 40 %. The analyses were performed using a Monolith NT.115, and the fitting curve was obtained by using NT Analysis 1.5.41 via Hill fitting. The KD value represents the numeric equivalent of the concentration of B14 when the response is half of the plateau response (Rmax) of the fitting curve.

O=C(CCN1CCOCC1)Nc1ccc2c(c1)c(=O)c1cc(NC(=O)CCN3CCOCC3)ccc1n2-c1ccc2occc2c1 [Compound B14]
ΔTm (CD melting) [1]: −3.13 °C
TO displacement ratio (RB promoter i-motif): 1%
-∆∆Ct, BAX ([2]; 6.25 μM B14): -0.13
F = 2^-∆∆Ct (relative expression fold), BAX ([2]; 6.25 μM B14): 1.09
-∆∆Ct, BAX ([2]; 12.5 μM B14): 0
F = 2^-∆∆Ct (relative expression fold), BAX ([2]; 12.5 μM B14): 1.00
-∆∆Ct, BAX ([2]; 25 μM B14): -0.03
F = 2^-∆∆Ct (relative expression fold), BAX ([2]; 25 μM B14): 1.02
Kd (HRAS promoter i-motif): > 50 µM
Kd ((G2C4)6 promoter i-motif): 33.3 µM
-∆∆Ct, BAX ([3]; 25 μM Aβ1-42 + 6.25 μM B14): -1.71
F = 2^-∆∆Ct (relative expression fold), BAX ([3]; 25 μM Aβ1-42 + 6.25 μM B14): 3.23
-∆∆Ct, BAX ([3]; 25 μM Aβ1-42 + 12.5 μM B14): -1.09
F = 2^-∆∆Ct (relative expression fold), BAX ([3]; 25 μM Aβ1-42 + 12.5 μM B14): 2.13
-∆∆Ct, BAX ([3]; 25 μM Aβ1-42 + 25 μM B14): -0.80
F = 2^-∆∆Ct (relative expression fold), BAX ([3]; 25 μM Aβ1-42 + 25 μM B14): 1.71
Kd [4]: 59.8 µM
